This experiment has as its system platelet aggregates. Put plainly: Platelet function test: inflow pressure of blood through collagen-coated microchip with plasma-treated channel dividing section (Test Example 3). The format is ex vivo. The conditions noted are these: blood collected before and after dosing of 100 mg of aspirin, hirudin 25 μg/ml anticoagulation, flow rate 27 μl/minute or 9 μl/minute. The method, then:
Blood was collected from a sample before and after dosing of 100 mg of aspirin, and each obtained blood was subjected to anticoagulation treatment with hirudin (25 μg/ml). The anticoagulated blood was subjected to flow through the channel of a microchip having a plasma-treated channel dividing section. More particularly, the reservoir 109 was filled with anticoagulated blood (before and after dosing of 100 mg of aspirin), and the pump 111 was filled with mineral oil. The pump 111 was connected to the reservoir 109, and a tip of the reservoir 109 was connected to the inlet 106 of the microchip 1. By injecting mineral oil from the pump 111 at a flow rate of 27 μl/minute or 9 μl/minute into the reservoir to overlay the mineral oil on the blood, the blood in the reservoir was pushed into the microchip 1 at the same flow rate, while the inflow pressure of the mineral oil (that is, the inflow pressure of the blood) was measured with a pressure sensor which is not shown.
In the case where the microchip having a plasma-untreated channel dividing section was used, the pressure increase was insufficient and the effect of aspirin could be therefore hardly identified. […]
Thus, the plasma irradiation increased the pressure to a higher level, and the stability of platelet aggregates under high-flow-rate conditions could be analyzed more accurately.

The text below walks through data of patent US8796031B2, “Microchip for platelet examination and platelet examination device using same” (Fujimori Kogyo Co., Ltd., priority 2010, dated 2014).

Molecules are shown by their SMILES.

For `CC(=O)Oc1ccccc1C(=O)O` [aspirin], the “effect of aspirin on platelet aggregation (inflow pressure of blood)” value is recorded as “decrease the stability of formed platelet aggregates rather than an effect to decrease the formation rate of platelet aggregates”.
